Assay results published in patent US9833497B2, “Human originated EGF domain proteins and use of the same” (CHENGDU SOURCEBIO LIMITED-LIABILITY COMPANY, priority 2013, dated 2017).

Key:
Format in all cases: cell-based
Pseudomonas aeruginosa = test: MIC against Gram-negative bacteria: Pseudomonas aeruginosa; conditions: for MIC against P. aeruginosa: Pseudomonas aeruginosa
Procedure, shortened: (§1)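 Antibacterial activity of purified human EGF domain proteins: two-fold concentration series, triplicate wells, LB broth, 5×10^5 CFU/mL bacteria, 37° C shaking incubation. The lowest concentration without growth defines the MIC.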

Moraxella catarrhalis = test: MIC against Gram-negative bacteria: Moraxella catarrhalis; conditions: for MIC against M. catarrhalis: Moraxella catarrhalis
Procedure, shortened: as §1

E. coli DH5α = test: Antibacterial activity: MIC and growth curve against E. coli DH5α in 96-well plate; conditions: minimal inhibitory concentration against E. coli DH5α; 96-well plate, 5×10^5 CFU/mL, 37° C., judged after 8 h
Procedure, shortened: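 Log-phase bacteria (OD600 ~0.5) resuspended in LB at 5×10^5 CFU/mL, exposed to recombinant protein at 50, 25, 12.5 μg/mL final in triplicate, 37 °C shaking at 175 rpm. OD600 read every 30 min; MIC is lowest concentration showing no growth.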

Proteus mirabilis = test: MIC against Gram-negative bacteria: Proteus mirabilis; conditions: for MIC against P. mirabilis: Proteus mirabilis
Procedure, shortened: as §1

Serratia marcescens = test: MIC against Gram-negative bacteria: Serratia marcescens; conditions: for MIC against S. marcescens: Serratia marcescens
Procedure, shortened: as §1

Klebsiella pneumonia = test: MIC against Gram-negative bacteria: Klebsiella pneumonia; conditions: for MIC against K. pneumonia: Klebsiella pneumonia
Procedure, shortened: as §1

Citrobacter diversus = test: MIC against Gram-negative bacteria: Citrobacter diversus; conditions: for MIC against C. diversus: Citrobacter diversus
Procedure, shortened: as §1

Proteus vulgaris = test: MIC against Gram-negative bacteria: Proteus vulgaris; conditions: for MIC against P. vulgaris: Proteus vulgaris
Procedure, shortened: as §1

Enterobacter cloacae = test: MIC against Gram-negative bacteria: Enterobacter cloacae; conditions: for MIC against E. cloacae: Enterobacter cloacae
Procedure, shortened: as §1

E. coli BL21 = test: MIC against Gram-negative bacteria: E. coli BL21
Procedure, shortened: as §1

Aeromonas hydrophila = test: MIC against Gram-negative bacteria: Aeromonas hydrophila; conditions: for MIC against A. hydrophila: Aeromonas hydrophila
Procedure, shortened: as §1

[1] = 96-well plate, 5×10^5 CFU/mL, 37° C., 10 h
[2] = 10 h cultivation at 37° C., 5×10^5 CFU/mL, two-fold serial dilution
[3] = 5×10^5 CFU/mL, 10 h cultivation at 37° C.
[4] = E. coli BL21, 5×10^5 CFU/mL, 10 h cultivation at 37° C.

PRT831 (DGRHCVRRSPCANRNGSCMHRCQVVRGLARCECHVGYQLAADGKACE; listed as Homo sapiens)
50 µg/mL: MIC (μg/mL) P. mirabilis (Proteus mirabilis; P. mirabilis, 10 h cultivation at 37° C., 5×10^5 CFU/mL) | MIC (μg/mL) C. diversus (Citrobacter diversus; C. diversus, 10 h cultivation at 37° C., 5×10^5 CFU/mL)
25 µg/mL: MIC (E. coli DH5α) | MIC (μg/mL) K. pneumonia (Klebsiella pneumonia; K. pneumonia, 10 h cultivation at 37° C., 5×10^5 CFU/mL) | MIC (μg/mL) P. vulgaris (Proteus vulgaris; P. vulgaris, 10 h cultivation at 37° C., 5×10^5 CFU/mL) | MIC (μg/mL) E. coli BL21 (E. coli BL21; E. coli BL21, 10 h cultivation at 37° C., 5×10^5 CFU/mL) | MIC (μg/mL) A. hydrophila (Aeromonas hydrophila; A. hydrophila, 10 h cultivation at 37° C., 5×10^5 CFU/mL)
12.5 µg/mL: MIC (μg/mL) P. aeruginosa (Pseudomonas aeruginosa; P. aeruginosa, 10 h cultivation at 37° C., 5×10^5 CFU/mL) | MIC (μg/mL) M. catarrhalis (Moraxella catarrhalis; M. catarrhalis, 10 h cultivation at 37° C., 5×10^5 CFU/mL) | MIC (μg/mL) S. marcescens (Serratia marcescens; S. marcescens, 10 h cultivation at 37° C., 5×10^5 CFU/mL) | MIC (μg/mL) E. cloacae (Enterobacter cloacae; E. cloacae, 10 h cultivation at 37° C., 5×10^5 CFU/mL)

PRT1309 (EVDPCAHGHGGCSPHANCTKVAPGQRTCTCQDGYMGDGELCQ; listed as Homo sapiens)
25 µg/mL: MIC against P. mirabilis (Proteus mirabilis; [1]) | MIC against S. marcescens (Serratia marcescens; [1]) | MIC against C. diversus (Citrobacter diversus; [1])
50 µg/mL: MIC against K. pneumonia (Klebsiella pneumonia; [1]) | MIC against P. vulgaris (Proteus vulgaris; [1]) | MIC against E. coli BL21 (E. coli BL21; E. coli BL21, 96-well plate, 5×10^5 CFU/mL, 37° C., 10 h) | MIC against A. hydrophila (Aeromonas hydrophila; [1])
12.5 µg/mL: MIC against P. aeruginosa (Pseudomonas aeruginosa; [1]) | MIC against M. catarrhalis (Moraxella catarrhalis; [1]) | MIC (E. coli DH5α) | MIC against E. cloacae (Enterobacter cloacae; [1])

PRT1115 (PTLPCEANPCLNGGTCRAAGGVSECICNARFSGQFCE; listed as Homo sapiens)
25 µg/mL: MIC E. coli BL21 (E. coli BL21; [2])
12.5 µg/mL: MIC P. aeruginosa (Pseudomonas aeruginosa; [2]) | MIC M. catarrhalis (Moraxella catarrhalis; [2]) | MIC P. mirabilis (Proteus mirabilis; [2]) | MIC S. marcescens (Serratia marcescens; [2]) | MIC C. diversus (Citrobacter diversus; [2]) | MIC P. vulgaris (Proteus vulgaris; [2]) | MIC E. cloacae (Enterobacter cloacae; [2]) | MIC A. hydrophila (Aeromonas hydrophila; [2])
50 µg/mL: MIC (E. coli DH5α) | MIC K. pneumonia (Klebsiella pneumonia; [2])

PRT1130 (DDCSSHCDLAHGCCAPDGSCRCDPGWEGLHCE; listed as Homo sapiens)
25 µg/mL: MIC P. mirabilis (Proteus mirabilis; [2]) | MIC S. marcescens (Serratia marcescens; [2]) | MIC C. diversus (Citrobacter diversus; [2])
50 µg/mL: MIC P. aeruginosa (Pseudomonas aeruginosa; [2]) | MIC M. catarrhalis (Moraxella catarrhalis; [2]) | MIC E. cloacae (Enterobacter cloacae; [2])
12.5 µg/mL: MIC (E. coli DH5α) | MIC K. pneumonia (Klebsiella pneumonia; [2]) | MIC P. vulgaris (Proteus vulgaris; [2]) | MIC E. coli BL21 (E. coli BL21; [2]) | MIC A. hydrophila (Aeromonas hydrophila; [2])

PRT1387 (IMDDCSTNCNGNGECISGHCHCFPGFLGPDCA; listed as Homo sapiens)
25 µg/mL: MIC against P. mirabilis (Proteus mirabilis; [3]) | MIC against S. marcescens (Serratia marcescens; [3]) | MIC against K. pneumonia (Klebsiella pneumonia; [3]) | MIC against C. diversus (Citrobacter diversus; [3])
12.5 µg/mL: MIC against M. catarrhalis (Moraxella catarrhalis; [3]) | MIC (E. coli DH5α) | MIC against P. vulgaris (Proteus vulgaris; [3]) | MIC against E. cloacae (Enterobacter cloacae; [3]) | MIC against E. coli BL21 (E. coli BL21; [4])
50 µg/mL: MIC against P. aeruginosa (Pseudomonas aeruginosa; [3]) | MIC against A. hydrophila (Aeromonas hydrophila; [3])

PRT723 (KERTCAENICEQNCTQLNEGGFICSCTAGFETNVFDRTSCL; listed as Homo sapiens)
12.5 µg/mL: MIC M. catarrhalis (Moraxella catarrhalis; [1]) | MIC S. marcescens (Serratia marcescens; [1]) | MIC A. hydrophila (Aeromonas hydrophila; [1])
25 µg/mL: MIC (E. coli DH5α) | MIC P. mirabilis (Proteus mirabilis; [1]) | MIC C. diversus (Citrobacter diversus; [1]) | MIC P. vulgaris (Proteus vulgaris; [1])
50 µg/mL: MIC E. cloacae (Enterobacter cloacae; [1]) | MIC E. coli BL21 (E. coli BL21; [1])
100 µg/mL: MIC P. aeruginosa (Pseudomonas aeruginosa; [1]) | MIC K. pneumonia (Klebsiella pneumonia; [1])

PRT1390 (EEDCLDPMCSNHGICVKGECHCSTGWGGVNCET; listed as Homo sapiens)
25 µg/mL: MIC against P. mirabilis (Proteus mirabilis; [3]) | MIC against C. diversus (Citrobacter diversus; [3])
50 µg/mL: MIC against M. catarrhalis (Moraxella catarrhalis; [3]) | MIC against S. marcescens (Serratia marcescens; [3]) | MIC against K. pneumonia (Klebsiella pneumonia; [3]) | MIC against P. vulgaris (Proteus vulgaris; [3]) | MIC against A. hydrophila (Aeromonas hydrophila; [3])
12.5 µg/mL: MIC against P. aeruginosa (Pseudomonas aeruginosa; [3]) | MIC (E. coli DH5α) | MIC against E. cloacae (Enterobacter cloacae; [3]) | MIC against E. coli BL21 (E. coli BL21; [4])

PRT933 (HRDPCEKNRCQNGGTCVAQAMLGKATCRCASGFTGEDCQ; listed as Homo sapiens)
12.5 µg/mL: MIC (Pseudomonas aeruginosa; P. aeruginosa, 10 h cultivation at 37° C.) | MIC (E. coli DH5α) | MIC (Proteus vulgaris; P. vulgaris, 10 h cultivation at 37° C.) | MIC (Aeromonas hydrophila; A. hydrophila, 10 h cultivation at 37° C.)
50 µg/mL: MIC (Moraxella catarrhalis; M. catarrhalis, 10 h cultivation at 37° C.) | MIC (Serratia marcescens; S. marcescens, 10 h cultivation at 37° C.) | MIC (Klebsiella pneumonia; K. pneumonia, 10 h cultivation at 37° C.)
25 µg/mL: MIC (Proteus mirabilis; P. mirabilis, 10 h cultivation at 37° C.) | MIC (Citrobacter diversus; C. diversus, 10 h cultivation at 37° C.) | MIC (Enterobacter cloacae; E. cloacae, 10 h cultivation at 37° C.) | MIC (E. coli BL21; E. coli BL21, 10 h cultivation at 37° C.)

PRT727 (EFDDCQIWGICDQKCESRPGRHLCHCEEGYILERGQYCK; listed as Homo sapiens)
25 µg/mL: MIC M. catarrhalis (Moraxella catarrhalis; [1]) | MIC E. coli BL21 (E. coli BL21; [1]) | MIC A. hydrophila (Aeromonas hydrophila; [1])
50 µg/mL: MIC P. aeruginosa (Pseudomonas aeruginosa; [1]) | MIC P. mirabilis (Proteus mirabilis; [1]) | MIC S. marcescens (Serratia marcescens; [1]) | MIC E. cloacae (Enterobacter cloacae; [1])
12.5 µg/mL: MIC (E. coli DH5α) | MIC K. pneumonia (Klebsiella pneumonia; [1]) | MIC C. diversus (Citrobacter diversus; [1]) | MIC P. vulgaris (Proteus vulgaris; [1])

PRT665 (GIDRCAAGATNVCGPGTCVNLPDGYRCVCSPGYQLHPSQAYCT; listed as Homo sapiens)
50 µg/mL: MIC P. vulgaris (Proteus vulgaris; [1]) | MIC E. coli BL21 (E. coli BL21; [1]) | MIC A. hydrophila (Aeromonas hydrophila; [1])
25 µg/mL: MIC P. aeruginosa (Pseudomonas aeruginosa; [1]) | MIC (E. coli DH5α) | MIC P. mirabilis (Proteus mirabilis; [1]) | MIC S. marcescens (Serratia marcescens; [1]) | MIC C. diversus (Citrobacter diversus; [1]) | MIC E. cloacae (Enterobacter cloacae; [1])
12.5 µg/mL: MIC M. catarrhalis (Moraxella catarrhalis; [1]) | MIC K. pneumonia (Klebsiella pneumonia; [1])
